# Assay results reported in patent US20250326807A1, “CALPROTECTIN BINDING PEPTIDES” (Buehlmann Laboratories AG, priority 2022, published 2025).
# Read-outs that look alike come from different tables or passages of the source. Ends that are not written are not given here.
# Legend:
# [1] = tested on: human recombinant calprotectin; test: Fluorescence polarization affinity measurement of fluorescein-labelled peptides; assay type: binding
# Procedure: The reaction mixture was incubated at 30° C. for 1 hr, and the completion of the reaction was assessed by LCMS. The reaction was stopped by addition of HCOOH (200 μL) and the cyclized peptide was lyophilized. The final purification was performed as before with a reversed-phase C18 column (X-bridge peptide BEH C18 5 μm, 300 Å, 10×250 mm, Waters) applying a flow rate of 6 mL/min and an appropriate linear gradient in 40 min. Fractions containing the desired peptide were lyophilized. The purity of the peptides was assessed by analysing around 20 μg of peptide by RP-HPLC (1260 HPLC system, Agilent) using a C18 column (ZORBAX 300SB-C18, 5 μm, 300 Å, 4.6×250 mm, Agilent). Peptides were run at a flow rate of 1 mL min^−1 with a linear gradient of 0-100% of solvent B over 15 min (A: 94.9% H2O, 5% ACN and 0.1% TFA; B: 99.9% ACN and 0.1% TFA). The mass was determined by electrospray ionization mass spectrometry (ESI-MS) in positive ion mode on a single quadrupole liquid chromatography mass spectrometer (LCMS-2020, Shimadzu). In order to measure the affinity of selected and synthesized peptides in fluorescence polarization, calprotectin was serially diluted in 20 mM HEPES, 100 mM NaCl, 2 mM CaCl2, pH 7.5, 1 mM DTT with 0.01% v/v Tween-20. 16 μL of protein were added to 4 μL of the fluorescent peptide (20 nM final concentration) in 96-well microtiter plates (black, half-area). Fluorescence anisotropy was measured on a microwell plate reader (Infinite M200Pro, Tecan), with a filter for excitation at 485 nm and emission at 535 nm. Dissociation constant (Kd) was calculated using the following equation on Prism 5 (GraphPad): […]
# were A is anisotropy, Af and Ab are the anisotropy values for free and bound ligand, respectively. [L]T is the concentration of total fluorescent ligand and [P]T the concentration of the protein.
# Subsequent fluorescence polarization experiments were performed according to example 1.
# [2] = tested on: Calprotectin; test: Surface plasmon resonance (Biacore 8K) with immobilized Calprotectin; assay type: binding, human; settings: highest concentration tested (500 nM)
# Procedure: In order to complement and validate the results obtained by FP, binding responses and kinetics of peptides with immobilized Calprotectin were analysed by SPR. The experiments were performed using a Biacore™ 8K instrument (GE Healthcare). Calprotectin (at 5 μg/mL) was dissolved in 10 mM acetate buffer (pH 5.0) and immobilized on a CM5 series S chip by standard amine coupling method in running buffer (10 mM HEPES pH 7.4, 150 mM NaCl, 2 mM CaCl2, and 0.005% v/v Tween-20) at 25° C. Typical immobilization levels were 3000 resonance units (RUs). Reference cell was treated in the same way but without the injection of protein. A single concentration for each peptide (500 nM) was injected in running buffer (10 mM HEPES pH 7.4, 150 mM NaCl, 2 mM CaCl2, 0.005% v/v Tween-20 and 0.5% v/v DMSO) to measure the binding level. For the measurement of binding kinetics and dissociation constants, five serial dilutions (3-fold) of peptides were prepared in running buffer (with 0.5% DMSO) and analysed in single cycle kinetics mode with the contact and dissociation times of 90 s and 120 s, respectively.
# The structure-activity relationship (SAR) analysis of Peptide 3 was assessed by synthesizing a large number of variants of Peptide 3 in which only one amino acid was altered at a time and the binding affinity was measured by surface plasmon resonance (SPR) and fluorescence polarization (FP).
# [3] = target: T1, Calprotectin (Homo sapiens, UniProt P05109+P06702); test: Sandwich ELISA with biotinylated calprotectin binding peptide and Strep-HRP; settings: incubation times of 60 minutes
# T1 sequence (P05109 1-93): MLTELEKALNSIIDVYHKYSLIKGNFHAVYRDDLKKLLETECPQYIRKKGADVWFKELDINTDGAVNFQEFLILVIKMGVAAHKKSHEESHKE
# T1 sequence (P06702 1-114): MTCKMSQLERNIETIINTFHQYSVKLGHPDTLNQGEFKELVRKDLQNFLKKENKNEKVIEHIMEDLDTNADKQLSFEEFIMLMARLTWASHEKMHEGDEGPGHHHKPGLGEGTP
# Procedure: The wells of 96 well Immulon 4 HBX-Extra High Binding plates (Thermo Fisher Scientific) were coated by overnight incubation at 4° C. with 80 μL of a 0.5 μg/mL solution of anti-calprotectin rabbit polyclonal antibody in Na2HCO3 (0.2 M, pH 9.4). The plates were rinsed four times with 200 μL of washing buffer (25 mM Tris, 150 mM NaCl, 2 mM CaCl2, PH 7.4, with 0.05% v/v Tween-20) per well. Then, all the wells were blocked by incubation with 300 μL of blocking buffer (25 mM Tris, 150 mM NaCl, pH 7.4, with 0.05% v/v Tween-20 and 3% w/v BSA) for 1 h at room temperature with shaking. After this time, the blocking buffer was removed and 80 μL of calprotectin was added in dilution buffer (wash buffer with 1% w/v BSA) for 1h at room temperature with shaking. The wells were washed 4 times with washing buffer. […] The solution was removed and the wells were washed 6times with washing buffer. 80 μL of TMB substrate (ready to use solution, SigmaAldrich) were added for 30 minutes and the reaction was stopped with 40 μL of sulfuric acid (2 M). The absorbance was read at 450 nm in a microwell plate reader (Infinite M200Pro, Tecan).
Substance,affinity to recombinant calprotectin (in words) [1],also measured
VCQQTASRCPVWECQRCP (not fully specified; cyclised or stapled),excellent binding affinity,
RCPECVAFPMFQCHWYCG [peptide 3],excellent binding affinity,SPR signal change [2]: ~40 response units
VCPCPLFRAHGCSRFSCQ (not fully specified; cyclised or stapled),excellent binding affinity,
TCPLNRTQCPLYACTTCP (not fully specified; cyclised or stapled),excellent binding affinity,
"Strep-HRP biotinylated peptide complex: linear peptide 3-biotin pre-mixed with streptavidin conjugated horse radish peroxidase (RSPESVAFPMFQSHWYSG; also: biotin, end not given here, non-covalent complex with streptavidin-HRP)",,detectable calprotectin concentration [3]: below 5 nM
SCQCPWDLFSQHSLSDCCD (cyclised or stapled),excellent binding affinity,
WCTQSPCPLYDSHQCSCK (not fully specified; cyclised or stapled),excellent binding affinity,
GCDLAHQPCPLYKCTKCP (cyclised or stapled),excellent binding affinity,
CQCPWDLFSQHSLSDCCD (cyclised or stapled),excellent binding affinity,
CTQSPCPLYDSHQCSCK (cyclised or stapled),excellent binding affinity,
"RSPESVAFPMFQSHWYSG [linear peptide 3, fully linear peptide comprising only serines instead of cysteines]",,affinity to recombinant calprotectin (in words) ([1]; listed as RSPESVAFPMFQSHWYSG): excellent binding affinity; affinity to recombinant calprotectin (in words) ([1]; listed as fully linear peptide): comparable affinities
ACRTCPLFTCPSCG (not fully specified; cyclised or stapled),excellent binding affinity,
